Patent US6117869A, “Compounds for and methods of inhibiting matrix metalloproteinases” (Warner-Lambert Company, priority 1999, dated 2000)

Key:
[1] = system: MMP-13CD; assay: Thiopeptolide assay, MMP-13CD; assay type: biochemical, Human; settings: catalytic domain; thiopeptolide substrate
Description: (§1) IC50 values were determined using a thiopeptolide substrate, Ac-Pro-Leu-Gly-thioester-Leu-Leu-Gly-OEt (Ye Q. Z., Johnson L. L., Hupe D. J., and Baragi V., "Purification and Characterization of the Human Stromelysin Catalytic Domain Expressed in Escherichia coli," Biochemistry,1992;31:11231-11235). MMP-1, MMP-7, and MMP-13 activity was assayed in a method similar to MMP-2 and MMP-3 (SCD and GCD). MMP-1 can be obtained from Washington University School of Medicine, St. Louis, Mo. MMP-7 can be obtained in accordance with the known procedure set forth by Ye Q. Z., Johnson L. L., and Baragi V., "Gene Syntheses and Expression in E. coli for PUMP, a Human Matrix Metalloproteinase," Biochem. and Biophys. Res. Comm., 1992;186:143-149. MMP13 can be obtained in accordance with the known procedure set forth by Freije J. M. P. et al., "Molecular Cloning and Expression of Collegenase-3, a Novel Human Matrix Metalloproteinase Produced by Breast Carcinomas," J. Bio. Chem., 1994;269:16766-16773.
(§2) Hydrolysis of the thiopeptolide substrate Ac-Pro-Leu-Gly-thioester-Leu-Leu-Gly-OEt (Bachem) is used as the primary screen to determine IC50 values for MMP inhibitors. A 100 μL reaction contains 1 mM 5,5'-dithiobis(2-nitrobenzoic acid) (DTNB), 100 μM substrate, 0.1% BRIJ® 35, PROTEIN GRADE®, Detergent, 10% solution, Sigma, St. Louis, Mo. [polyoxyethyleneglycol dodecyl ether; polyoxyethylene (23) lauryl ether], enzyme, and inhibitor in the appropriate reaction buffer. Activated full-length enzymes are assayed at 5 nM, Stromelysin Catalytic Domain (SCD) at 10 nM, and Gelatinase A Catalytic Domain (GaCD) at 1 nM. Inhibitors are screened from 100 μM to 1 nM. Full-length enzymes (MMP-1 and MMP-7) are assayed in 50 mM HEPES, 10 mM CaCl2, pH 7.0; SCD in 50 mM MES, 10 mM CaCl2, pH 6.0; and GaCD in 50 mM MOPS, 10 mM CaCl2, 10 μM ZnCl2, pH 7.0. The change in absorbance at 405 nm is monitored on a ThermoMax microplate reader at room temperature continuously for 20 minutes.

[2] = biological target: T1, MMP-7 (Homo sapiens, UniProt P09237); assay: Thiopeptolide assay, MMP-7; assay type: biochemical; settings: full-length enzyme, 5 nM; pH 7.0; 100 μM thiopeptolide substrate
T1 construct: made in house; host or cells: E. coli
T1 sequence (P09237 95-267): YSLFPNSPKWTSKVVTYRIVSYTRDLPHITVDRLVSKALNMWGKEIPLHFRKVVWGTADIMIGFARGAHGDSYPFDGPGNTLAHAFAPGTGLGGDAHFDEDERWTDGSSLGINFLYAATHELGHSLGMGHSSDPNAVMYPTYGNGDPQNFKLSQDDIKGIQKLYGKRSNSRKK
Description: as §1, §2

[3] = system: MMP-14CD; assay: Thiopeptolide assay, MMP-14CD; assay type: biochemical; settings: catalytic domain; thiopeptolide substrate
Description: as §1, §2

[4] = biological target: T2, MMP-3CD (Homo sapiens, UniProt P08254); assay: Thiopeptolide assay, stromelysin-1 catalytic domain (SCD); assay type: biochemical; settings: 10 nM, pH 6.0, 100 μM thiopeptolide substrate
T2 construct: Stromelysin Catalytic Domain (SCD) at 10 nM; made in house; host or cells: Escherichia coli
T2 sequence (P08254 100-272 limits assumed): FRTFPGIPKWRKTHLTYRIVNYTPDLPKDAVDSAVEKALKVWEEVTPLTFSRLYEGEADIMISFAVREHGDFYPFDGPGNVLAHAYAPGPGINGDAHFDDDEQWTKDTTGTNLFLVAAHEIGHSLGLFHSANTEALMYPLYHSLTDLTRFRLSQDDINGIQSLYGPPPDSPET
Description: as §1, §2

[5] = biological target: MMP-2CD; assay: Thiopeptolide assay, gelatinase A catalytic domain (GCD/GaCD); assay type: biochemical; settings: 1 nM, pH 7.0, 100 μM thiopeptolide substrate
Description: as §1, §2

[6] = biological target: T3, MMP-1 (Homo sapiens, UniProt P03956); assay: Thiopeptolide assay, MMP-1; assay type: biochemical; settings: full-length enzyme, 5 nM; pH 7.0; 100 μM thiopeptolide substrate
T3 construct: purchased Washington University School of Medicine, St. Louis, Mo
T3 sequence (P03956 100-469): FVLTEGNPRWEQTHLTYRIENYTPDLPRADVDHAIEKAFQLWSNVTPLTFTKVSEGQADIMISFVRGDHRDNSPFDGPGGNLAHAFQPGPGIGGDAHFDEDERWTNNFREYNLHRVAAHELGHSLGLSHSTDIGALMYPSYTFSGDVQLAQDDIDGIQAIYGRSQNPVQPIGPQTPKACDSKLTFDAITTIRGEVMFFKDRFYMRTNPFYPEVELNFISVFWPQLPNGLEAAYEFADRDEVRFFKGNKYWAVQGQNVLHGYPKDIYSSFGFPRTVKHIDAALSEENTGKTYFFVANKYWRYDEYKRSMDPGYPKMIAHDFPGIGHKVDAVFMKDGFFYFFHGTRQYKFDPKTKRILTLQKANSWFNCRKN
Description: as §1, §2

[7] = biological target: MMP-9 (Homo sapiens, UniProt P14780); assay: Thiopeptolide assay, MMP-9; assay type: biochemical; settings: thiopeptolide substrate
Chain of MMP-9 (P14780 94-707): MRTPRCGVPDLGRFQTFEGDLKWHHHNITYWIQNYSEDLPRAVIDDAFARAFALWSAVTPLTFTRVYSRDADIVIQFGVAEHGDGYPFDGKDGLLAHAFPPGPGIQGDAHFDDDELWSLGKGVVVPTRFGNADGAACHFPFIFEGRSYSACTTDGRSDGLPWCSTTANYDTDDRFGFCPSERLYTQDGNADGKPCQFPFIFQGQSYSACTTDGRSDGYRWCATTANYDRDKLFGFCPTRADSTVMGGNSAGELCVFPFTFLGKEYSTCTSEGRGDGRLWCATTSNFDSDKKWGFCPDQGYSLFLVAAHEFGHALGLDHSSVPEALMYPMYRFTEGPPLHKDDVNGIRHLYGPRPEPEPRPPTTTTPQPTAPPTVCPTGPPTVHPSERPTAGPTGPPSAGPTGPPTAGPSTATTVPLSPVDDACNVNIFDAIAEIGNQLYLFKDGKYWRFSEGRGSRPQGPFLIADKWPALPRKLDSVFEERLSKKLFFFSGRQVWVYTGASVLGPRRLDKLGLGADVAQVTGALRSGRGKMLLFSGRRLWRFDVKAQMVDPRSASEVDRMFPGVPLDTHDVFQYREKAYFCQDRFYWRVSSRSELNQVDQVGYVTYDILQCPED
Description: [The source words this procedure for another target and reports this target under the same test.] as §1, §2

[8] = system: human ovarian carcinoma xenografts; settings: mice bearing human ovarian carcinoma xenografts; cited from earlier work
[9] = system: bovine nasal cartilage; settings: cited from earlier work
[10] = system: pig articular cartilage; settings: cited from earlier work

Molecule	IC50 [1] [µM]	IC50 [2] [µM]	IC50 [3] [µM]	IC50 [4] [µM]	IC50 [5] [µM]	IC50 [6] [µM]	IC50 [7] [µM]	survival [8]	tumor burden [8]	formation of collagen and proteoglycan fragments [9]	formation of collagen and proteoglycan fragments [10]
O=C(O)[C@H](CO)NS(=O)(=O)c1ccc2c(c1)Sc1ccccc1O2 [Example 5, (S)-3-Hydroxy-2-(phenoxathiine-2-sulfonylamino)-propionic acid]	1.8	23	0.39	0.18	0.069	> 100	82	–	–	–	–
O=C(O)[C@H](Cc1ccc(O)cc1)NS(=O)(=O)c1ccc2c(c1)Sc1ccccc1O2 [Example 14, (S)-3-(4-Hydroxy-phenyl)-2-(phenoxathiine-2-sulfonylamino)-propionic acid]	2.3	17	0.2	0.12	0.09	87	18	–	–	–	–
O=C(O)[C@H](CCc1ccccc1)NS(=O)(=O)c1ccc2c(c1)Sc1ccccc1O2 [Example 2, (S)-2-(Phenoxathiine-2-sulfonylamino)-4-phenyl-butyric acid]	1.39	7.9	0.092	0.054	0.033	> 100	16.6	–	–	–	–
O=C(O)[C@H](CO)NS(=O)(=O)c1ccc2c(c1)Cc1ccccc1O2 [Example 6, (S)-3-Hydroxy-2-(9H-xanthene-2-sulfonylamino)-propionic acid]	4.3	34	4.1	0.44	0.65	> 100	> 100	–	–	–	–
O=C(O)[C@H](CSC(c1ccccc1)(c1ccccc1)c1ccccc1)NS(=O)(=O)c1ccc2c(c1)Sc1ccccc1O2 [Example 13, (R)-2-(Phenoxathiine-2-sulfonylamino)-3-tritylsulfanyl-propionic acid]	36	66	7.4	4.65	3.2	> 100	> 100	–	–	–	–
C[S+]([O-])CC[C@H](NS(=O)(=O)c1ccc2c(c1)Sc1ccccc1O2)C(=O)O (stereo partly drawn) [Example 10, (S)-4-Methanesulfinyl-2-(phenoxathiine-2-sulfonylamino)-butyric acid]	4.1	9.15	0.285	0.165	0.0585	72	38	–	–	–	–
CC(C)[C@@H](NS(=O)(=O)c1ccc2c(c1)Sc1ccccc1O2)C(=O)O [Example 8, (R)-3-Methyl-2-(phenoxathiine-2-sulfonylamino)-butyric acid]	0.27	19	0.155	0.0155	0.027	6.25	12	–	–	–	–
CNC(=O)[C@H](Cc1ccccc1)NC(=O)[C@H](CC(C)C)[C@H](CSc1cccs1)C(=O)NO [BB-94]	–	–	–	–	–	–	–	prolonged the survival	decreased the tumor burden	–	–
CC(C)C[C@H](NS(=O)(=O)c1ccc2c(c1)Sc1ccccc1O2)C(=O)O [Example 11, (S)-4-Methyl-2-(phenoxathiine-2-sulfonylamino)-pentanoic acid]	3.9	8.7	0.3	0.0625	0.0235	55	18	–	–	–	–
CC(C)[C@H](NS(=O)(=O)c1ccc2c(c1)Sc1ccccc1O2)C(=O)O [Example 4, (S)-3-Methyl-2-(phenoxathiine-2-sulfonylamino)-butyric acid]	–	6.7	–	0.053	–	39	19	–	–	–	–
O=C(O)[C@H](CCc1ccccc1)NS(=O)(=O)c1ccc2c(c1)S(=O)(=O)c1ccccc1O2 [Example 7, (S)-2-(10,10-Dioxo-10H-10λ^6-phenoxathiine-2-sulfonylamino)-4-phenyl-butyric acid]	73	24	3.7	3.75	2.3	> 100	> 100	–	–	–	–
O=C(O)[C@H](Cc1c[nH]c2ccccc12)NS(=O)(=O)c1ccc2c(c1)Sc1ccccc1O2 [Example 15, (S)-3-(1H-Indol-3-yl)-2-(phenoxathiine-2-sulfonylamino)-propionic acid]	16	54	3.8	0.86	0.91	> 100	> 100	–	–	–	–
CC(C)[C@H](NS(=O)(=O)c1ccc2c(c1)Sc1ccccc1S2)C(=O)O [Example 1, (S)-3-Methyl-2-((thianthren-2-ylsulfonyl)amino)butanoic acid]	> 100	27.6	40	6.9	15.4	> 100	> 100	–	–	–	–
C[C@H](NS(=O)(=O)c1ccc2c(c1)Sc1ccccc1O2)C(=O)O [Example 9, (S)-2-(Phenoxathiine-2-sulfonylamino)-propionic acid]	5.25	19	0.19	0.295	0.033	76	23	–	–	–	–
O=C(O)[C@H](CCc1ccccc1)NS(=O)(=O)c1ccc2c(c1)Cc1ccccc1O2 [Example 3, (S)-4-Phenyl-2-(9H-xanthene-2-sulfonylamino)-butyric acid]	0.5	3.2	1	0.068	0.2	> 100	> 100	–	–	–	–
O=C(O)[C@@H](NS(=O)(=O)c1ccc2c(c1)Sc1ccccc1O2)c1ccccc1 [Example 17, (S)-(Phenoxathiine-2-sulfonylamino)-phenyl-acetic acid]	12	> 100	0.94	2	0.15	> 100	> 100	–	–	–	–
O=C(O)[C@H](Cc1ccccc1)NS(=O)(=O)c1ccc2c(c1)Sc1ccccc1O2 [Example 12, (S)-2-(Phenoxathiine-2-sulfonylamino)-3-phenyl-propionic acid]	8.7	91	0.5	0.35	0.17	> 100	> 100	–	–	–	–
TIMP-1: tissue inhibitors of metalloproteinases	–	–	–	–	–	–	–	–	–	prevented the formation of collagen fragments, but not proteoglycan fragments	prevented the formation of collagen fragments, but not proteoglycan fragments
NC(=O)C[C@H](NS(=O)(=O)c1ccc2c(c1)Sc1ccccc1O2)C(=O)O [Example 16, (S)-2-(Phenoxathiine-2-sulfonylamino)-succinamic acid]	4.4	14	1.55	0.41	0.113	> 100	53	–	–	–	–
